Reference: patent EP2271935B1, “METHOD AND KIT FOR THE EX VIVO EVALUATION OF THE RESPONSE OF A TUMOR TO CONDITIONS TO BE TESTED” (Universität Leipzig, priority 2008, dated 2009)

Tested on: colonies of epithelial cells of head and neck squamous carcinoma
Test: ex vivo colony formation assay of collagenase-digested tumor samples, epithelial colonies counted after cytokeratin staining
Type: cell-based, human
Conditions: for Range from / Range to: concentrations with log-linear relation to response; for Range from / Range to / Cut-off concentrations Sample 1 / Cut-off concentrations Sample 2 / Cut-off concentrations Sample 3 / IC50 Sample 1 / IC50 Sample 2 / IC50 Sample 3: docetaxel (TPL = 0.55 µmol/l), 72 h
Description: Thereafter the tumors which usually have a size of about 0.1 to 1 ml were mechanically disintegrated by mincing to tissue pats of about 0.1 to 10 mm^3 and immersed each in 30 ml of pre-warmed riboflavin-free RPMI 1640 medium without phenol red and containing 14.5 mmol/l HEPES, 13.5 mmol/l NaHCO3, stabilized glutamine, 10% (v/v) fetal calf serum, the antibiotics penicillin, streptomycin and amikacin, as well as the antimycotic nystatin. The tumor cells were always handled at room temperature or warmer and never exposed to light other than the light of a sodium discharge lamp with an emission wavelength of 589 nm. Immediately after mechanical disintegration 120 U/ml collagenase type IV of Clostridium histolyticum (EC 3.4.24.3, type IV) were added and the mixture incubated for 16 h at 36.5°C in brown glass bottles in an incubator. To ensure optimal incubation conditions, the CO2 concentration therein was constantly kept at 3.5% and relative humidity at 95%. Following enzymatic disintegration by collagenase the digest was centrifuged for 10 min at 1200 rpm, the resulting pellets were carefully re-suspended in fresh culture medium supplemented as described but without collagenase. […] Ex-vivo testing was performed 72 h using the same culture conditions as during the collagenase digest.
After 72 hours of incubation, the wells were rinsed twice with phosphate buffered saline, pH 7.8, and the adherent cells and cell colonies were fixed with ice-cold 90% methanol for 10 min. Fixed specimens were exposed for 5 min to PBS/ 0.1% Tween-20® (Polysorbate 20) before preincubation with 1% serum in PBS/ 0.1% Tween-20 for 45 min, followed by overnight incubation at 4°C with the primary antibody (anti-cytokeratin; SantaCruz sc-8018, C11) diluted 1:400 in PBS/ 0.1% Tween-20 supplemented with 0.2 % serum. After three rinses for 10 min each with PBS/ 0.2 % Serum/ 0.1% Tween-20, specimens were incubated for another 2 h at room temperature in the dark with the secondary antibody (anti-mouse IgG coupled with Cy2 or Cy3 fluorescence dye, Jackson ImmunoResearch, Cambs, UK) in a 1:400 dilution in PBS/ 0.2 % Serum/ 0.1 % Tween-20 followed by three rinses with PBS/ 0.2 % Serum/ 0.1 % Tween-20, and a final rinse with distilled water for 2 min. The test plate was air dried, and fluorescence signals were imaged with the Zeiss Axiovert 200M inverted fluorescence microscope (Zeiss, Jena, Germany) using Zeiss filter sets 44 and 43HE for Cy2 and Cy3, respectively. The evaluation of the colonies is possible using every given fluorescence microscope but is eased by the use of dedicated filter sets. […] The test is utilized by separately counting of colonies of different types (stained epithelial, unstained stromal cells), the numbers of colonies in the different treatments (e.g. doses of radiation or concentrations of chemotherapeutics) are recorded and kept for further analysis.
(§1) Freshly resected probes of head and neck squamous carcinoma of 14 untreated patients were investigated and treated if not stated otherwise as described in example 1. Three fragments were each excised from different tumor areas, weighed, and treated with collagenase as outlined in Example 1.
1.5 mg of tumor was applied to a well.
as §1, with “Example 1. Collagenase digests were exposed to concentrations in the range from 0.5- to 32-fold the tolerated plasma levels (TPL) of docetaxel: (TPL = 0.55 µmol/l).” for “Example 1.”

IC50 Sample 1 (Tumor-No. 1): 4.565 n-fold TPL
IC50 Sample 2 (Tumor-No. 1): 4.718 n-fold TPL
IC50 Sample 3 (Tumor-No. 1): 5.040 n-fold TPL
IC50 Sample 1 (Tumor-No. 2): 1.486 n-fold TPL
IC50 Sample 2 (Tumor-No. 2): 0.579 n-fold TPL
IC50 Sample 3 (Tumor-No. 2): 1.157 n-fold TPL
IC50 Sample 1 (Tumor-No. 3): 16.404 n-fold TPL
IC50 Sample 2 (Tumor-No. 3): 10.711 n-fold TPL
IC50 Sample 3 (Tumor-No. 3): 19.173 n-fold TPL
IC50 Sample 1 (Tumor-No. 4): 27.819 n-fold TPL
IC50 Sample 3 (Tumor-No. 4): 23.393 n-fold TPL
IC50 Sample 1 (Tumor-No. 5): 3.891 n-fold TPL
IC50 Sample 3 (Tumor-No. 5): 9.987 n-fold TPL
IC50 Sample 1 (Tumor-No. 6): 8.208 n-fold TPL
IC50 Sample 2 (Tumor-No. 6): 6.690 n-fold TPL
IC50 Sample 3 (Tumor-No. 6): 8.404 n-fold TPL
IC50 Sample 1 (Tumor-No. 7): 3.616 n-fold TPL
IC50 Sample 2 (Tumor-No. 7): 3.629 n-fold TPL
IC50 Sample 3 (Tumor-No. 7): 2.692 n-fold TPL
IC50 Sample 1 (Tumor-No. 8): 6.709 n-fold TPL
IC50 Sample 3 (Tumor-No. 8): 5.282 n-fold TPL
IC50 Sample 1 (Tumor-No. 9): 6.964 n-fold TPL
IC50 Sample 2 (Tumor-No. 9): 7.495 n-fold TPL
SMILES: CC(=O)O[C@@]12CO[C@@H]1C[C@H](O)[C@@]1(C)C(=O)[C@H](O)C3=C(C)[C@@H](OC(=O)[C@H](O)[C@@H](NC(=O)OC(C)(C)C)c4ccccc4)C[C@@](O)([C@@H](OC(=O)c4ccccc4)[C@H]21)C3(C)C [docetaxel]
Range from (Tumor-No. 1): 2.0 n-fold TPL
Range to (Tumor-No. 1): 8.0 n-fold TPL
Range from (Tumor-No. 2): 0.5 n-fold TPL
Range to (Tumor-No. 2): 32.0 n-fold TPL
Range from (Tumor-No. 3): 2.0 n-fold TPL
Range to (Tumor-No. 3): 32.0 n-fold TPL
Range from (Tumor-No. 4): 4.0 n-fold TPL
Range to (Tumor-No. 4): 32.0 n-fold TPL
Range from (Tumor-No. 5): 0.5 n-fold TPL
Range to (Tumor-No. 5): 32.0 n-fold TPL
Range from (Tumor-No. 6): 2.0 n-fold TPL
Range to (Tumor-No. 6): 32.0 n-fold TPL
Range from (Tumor-No. 7): 2.0 n-fold TPL
Range to (Tumor-No. 7): 32.0 n-fold TPL
Range from (Tumor-No. 8): 1.0 n-fold TPL
Range to (Tumor-No. 8): 32.0 n-fold TPL
Range from (Tumor-No. 9): 0.5 n-fold TPL
Range to (Tumor-No. 9): 32.0 n-fold TPL
effect on number of epithelial colonies at low concentrations (concentrations ≤ TPL, seven tumors (No. 2, 3, 4, 5, 6, 8 and 9)): hormesis
Cut-off concentrations Sample 1 (Tumor-No. 1): 8 n-fold TPL
Cut-off concentrations Sample 2 (Tumor-No. 1): 8 n-fold TPL
Cut-off concentrations Sample 3 (Tumor-No. 1): 8 n-fold TPL
Cut-off concentrations Sample 1 (Tumor-No. 2): X (not more than 5 colonies at most have appeared at the highest dose rate)
Cut-off concentrations Sample 2 (Tumor-No. 2): X (not more than 5 colonies at most have appeared at the highest dose rate)
Cut-off concentrations Sample 3 (Tumor-No. 2): X (not more than 5 colonies at most have appeared at the highest dose rate)
Cut-off concentrations Sample 1 (Tumor-No. 3): X (not more than 5 colonies at most have appeared at the highest dose rate)
Cut-off concentrations Sample 2 (Tumor-No. 3): X (not more than 5 colonies at most have appeared at the highest dose rate)
Cut-off concentrations Sample 3 (Tumor-No. 3): X (not more than 5 colonies at most have appeared at the highest dose rate)
Cut-off concentrations Sample 1 (Tumor-No. 4): XX (more than 5 colonies have appeared at the highest dose rate)
Cut-off concentrations Sample 2 (Tumor-No. 4): X (not more than 5 colonies at most have appeared at the highest dose rate)
Cut-off concentrations Sample 3 (Tumor-No. 4): XX (more than 5 colonies have appeared at the highest dose rate)
Cut-off concentrations Sample 1 (Tumor-No. 5): X (not more than 5 colonies at most have appeared at the highest dose rate)
Cut-off concentrations Sample 2 (Tumor-No. 5): XX (more than 5 colonies have appeared at the highest dose rate)
Cut-off concentrations Sample 3 (Tumor-No. 5): X (not more than 5 colonies at most have appeared at the highest dose rate)
Cut-off concentrations Sample 1 (Tumor-No. 6): X (not more than 5 colonies at most have appeared at the highest dose rate)
Cut-off concentrations Sample 2 (Tumor-No. 6): X (not more than 5 colonies at most have appeared at the highest dose rate)
Cut-off concentrations Sample 3 (Tumor-No. 6): X (not more than 5 colonies at most have appeared at the highest dose rate)
Cut-off concentrations Sample 1 (Tumor-No. 7): 32 n-fold TPL
Cut-off concentrations Sample 2 (Tumor-No. 7): 32 n-fold TPL
Cut-off concentrations Sample 3 (Tumor-No. 7): 32 n-fold TPL
Cut-off concentrations Sample 1 (Tumor-No. 8): 32 n-fold TPL
Cut-off concentrations Sample 2 (Tumor-No. 8): 32 n-fold TPL
Cut-off concentrations Sample 3 (Tumor-No. 8): X (not more than 5 colonies at most have appeared at the highest dose rate)
Cut-off concentrations Sample 1 (Tumor-No. 9): X (not more than 5 colonies at most have appeared at the highest dose rate)
Cut-off concentrations Sample 2 (Tumor-No. 9): X (not more than 5 colonies at most have appeared at the highest dose rate)
Cut-off concentrations Sample 3 (Tumor-No. 9): X (not more than 5 colonies at most have appeared at the highest dose rate)
